Values of other authors, collected in US12247053B2 (priority 2018, dated 2025).

System: 2009 swine flu influenza A(H1N1)

Row | Structure (SMILES) | susceptibility of the virus
1 | CC(N)C12CC3CC(CC(C3)C1)C2 (stereo not shown) [rimantadine] | resistant
2 | CC(=O)N[C@H]1[C@H]([C@H](O)[C@H](O)CO)OC(C(=O)O)=C[C@@H]1N=C(N)N [zanamivir] | susceptible
3 | NC12CC3CC(CC(C3)C1)C2 [amantadine] | resistant
4 | CCOC(=O)C1=C[C@@H](OC(CC)CC)[C@H](NC(C)=O)[C@@H](N)C1 [oseltamivir] | susceptible
